From patent US7344727B2, “Process for cleaning bovine teats” (H&S Chemical Company, Inc., priority 2002, dated 2008)

How the values were obtained:
[1] = tested on: bacteria on the udder and teat areas; test: sanitizing the udder and teat areas with a solution of TCM; type: in vivo
Source text: This invention relates to the use of trichloromelamine as an active agent for sanitizing the udder and teat areas of cows. Like bleach TCM produces the Cl+ ion which is capable of killing a wide spectrum of bacteria. […] Solutions of sodium hypochlorite are generally not suitable for use on living tissue. […] The process of this invention is effected by spraying the udder and teat areas of a bovine with a solution of TCM. The process may be further effected by dipping the udder and teat areas in a solution of TCM. The process of this invention effectively kills all bacteria as may be on the udder and teat areas of a bovine in less than one minute.

[2] = bovine, in vivo
Source text: This invention relates to the use of trichloromelamine as an active agent for sanitizing the udder and teat areas of cows. Like bleach TCM produces the Cl+ ion which is capable of killing a wide spectrum of bacteria. […] Solutions of sodium hypochlorite are generally not suitable for use on living tissue.

trichloromelamine [TCM]
residual effect on the udder and teat areas ([1]; residual TCM left after treatment): inhibits future bacterial contamination | time to kill the troublesome bacteria ([1]; soft living tissue treated in accordance with the invention): killed in a matter of seconds | effect on treated living tissue [2]: not adversely affected
